Data published in ChEMBL document CHEMBL4507319 (2021).

What was measured:
[1] = target: Dual specificity tyrosine-phosphorylation-regulated kinase 1A (Homo sapiens) (UniProt Q13627); conditions: Compound concentration 1000.0 nM
[2] = target: T1, Ephrin type-B receptor 3 (Homo sapiens) (UniProt P54753); conditions: Compound concentration 1000.0 nM
T1 sequence (whole entry): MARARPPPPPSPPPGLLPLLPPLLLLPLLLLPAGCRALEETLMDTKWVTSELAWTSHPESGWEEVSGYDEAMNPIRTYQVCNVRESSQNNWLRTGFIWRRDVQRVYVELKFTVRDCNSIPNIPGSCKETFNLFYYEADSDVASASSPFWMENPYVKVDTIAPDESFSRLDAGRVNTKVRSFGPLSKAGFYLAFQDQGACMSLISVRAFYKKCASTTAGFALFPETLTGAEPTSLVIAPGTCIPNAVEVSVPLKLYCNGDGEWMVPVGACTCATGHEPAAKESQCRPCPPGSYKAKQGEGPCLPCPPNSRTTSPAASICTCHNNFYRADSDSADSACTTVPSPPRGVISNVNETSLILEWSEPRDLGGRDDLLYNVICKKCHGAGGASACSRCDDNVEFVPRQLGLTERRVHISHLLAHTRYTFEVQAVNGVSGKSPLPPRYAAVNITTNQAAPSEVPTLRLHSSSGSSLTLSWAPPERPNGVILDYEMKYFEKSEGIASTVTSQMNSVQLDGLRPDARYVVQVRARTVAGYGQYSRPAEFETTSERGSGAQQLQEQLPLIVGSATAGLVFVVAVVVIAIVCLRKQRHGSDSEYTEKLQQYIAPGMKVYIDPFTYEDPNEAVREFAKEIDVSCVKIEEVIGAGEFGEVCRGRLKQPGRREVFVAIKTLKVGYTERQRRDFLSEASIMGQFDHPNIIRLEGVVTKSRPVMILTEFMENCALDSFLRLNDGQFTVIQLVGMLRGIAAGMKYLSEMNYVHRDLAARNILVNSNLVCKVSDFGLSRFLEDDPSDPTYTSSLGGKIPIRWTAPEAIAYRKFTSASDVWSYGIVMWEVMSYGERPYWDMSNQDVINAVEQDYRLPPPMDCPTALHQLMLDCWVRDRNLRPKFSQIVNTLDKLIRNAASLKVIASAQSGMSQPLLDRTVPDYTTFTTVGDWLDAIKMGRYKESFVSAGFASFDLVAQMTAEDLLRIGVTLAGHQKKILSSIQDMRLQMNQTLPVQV

[3] = target: T2, Tyrosine-protein kinase receptor TYRO3 (Homo sapiens) (UniProt Q06418); conditions: Compound concentration 1000.0 nM
T2 sequence (whole entry): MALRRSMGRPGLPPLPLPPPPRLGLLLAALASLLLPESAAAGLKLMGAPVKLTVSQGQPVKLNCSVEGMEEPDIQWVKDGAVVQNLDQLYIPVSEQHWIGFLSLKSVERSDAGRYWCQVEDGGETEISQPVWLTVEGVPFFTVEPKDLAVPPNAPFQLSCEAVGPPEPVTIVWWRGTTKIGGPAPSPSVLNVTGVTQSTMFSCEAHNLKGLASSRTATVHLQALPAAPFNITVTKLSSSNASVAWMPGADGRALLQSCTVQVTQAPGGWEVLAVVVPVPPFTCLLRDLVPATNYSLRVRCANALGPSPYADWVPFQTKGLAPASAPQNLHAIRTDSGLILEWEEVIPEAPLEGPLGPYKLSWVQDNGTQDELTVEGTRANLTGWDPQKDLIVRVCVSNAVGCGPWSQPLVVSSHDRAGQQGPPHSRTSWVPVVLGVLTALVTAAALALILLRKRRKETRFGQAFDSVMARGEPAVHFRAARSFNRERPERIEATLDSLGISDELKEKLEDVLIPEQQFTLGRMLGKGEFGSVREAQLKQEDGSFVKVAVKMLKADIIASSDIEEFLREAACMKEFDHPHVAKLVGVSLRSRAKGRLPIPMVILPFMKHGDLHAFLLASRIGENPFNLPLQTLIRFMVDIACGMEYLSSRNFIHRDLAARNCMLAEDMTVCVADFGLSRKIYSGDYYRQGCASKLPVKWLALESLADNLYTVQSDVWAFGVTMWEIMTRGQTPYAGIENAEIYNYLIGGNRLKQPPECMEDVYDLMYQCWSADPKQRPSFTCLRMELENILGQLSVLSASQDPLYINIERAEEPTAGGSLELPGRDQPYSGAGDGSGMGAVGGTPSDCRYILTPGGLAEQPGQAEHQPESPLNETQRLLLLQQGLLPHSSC

[4] = target: Atypical kinase COQ8B, mitochondrial (Homo sapiens) (UniProt Q96D53); conditions: Compound concentration 1000.0 nM
[5] = target: Mitogen-activated protein kinase kinase kinase 19 (Homo sapiens) (UniProt Q56UN5); conditions: Compound concentration 1000.0 nM
[6] = target: Sodium-dependent noradrenaline transporter (Homo sapiens) (UniProt P23975); conditions: Compound concentration 10.0 uM
[7] = target: T3, Beta-adrenergic receptor kinase 1 (Homo sapiens) (UniProt P25098); conditions: Compound concentration 1000.0 nM
T3 sequence (whole entry): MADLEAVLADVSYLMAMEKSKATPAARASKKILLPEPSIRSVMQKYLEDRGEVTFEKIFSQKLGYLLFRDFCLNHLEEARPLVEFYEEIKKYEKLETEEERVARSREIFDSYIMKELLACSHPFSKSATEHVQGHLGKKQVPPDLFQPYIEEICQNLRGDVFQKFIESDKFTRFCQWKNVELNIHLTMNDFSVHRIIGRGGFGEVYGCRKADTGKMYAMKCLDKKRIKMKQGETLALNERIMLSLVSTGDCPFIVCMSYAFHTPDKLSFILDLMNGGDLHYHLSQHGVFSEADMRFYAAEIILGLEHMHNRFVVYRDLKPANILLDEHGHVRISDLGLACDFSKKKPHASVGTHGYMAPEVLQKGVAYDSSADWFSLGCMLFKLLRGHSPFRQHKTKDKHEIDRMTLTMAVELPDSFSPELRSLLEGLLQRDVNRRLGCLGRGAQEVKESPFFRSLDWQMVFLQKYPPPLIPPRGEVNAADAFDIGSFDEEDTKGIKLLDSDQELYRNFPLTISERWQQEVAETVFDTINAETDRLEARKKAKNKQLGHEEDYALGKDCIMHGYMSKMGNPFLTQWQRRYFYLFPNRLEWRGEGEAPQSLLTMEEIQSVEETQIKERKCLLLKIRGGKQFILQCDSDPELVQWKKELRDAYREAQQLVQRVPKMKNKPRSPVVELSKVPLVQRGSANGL

[8] = target: Muscarinic acetylcholine receptor M5 (Homo sapiens) (UniProt P08912); conditions: Compound concentration 10.0 uM
[9] = target: 5-hydroxytryptamine receptor 1A (Homo sapiens) (UniProt P08908); conditions: Compound concentration 10.0 uM
Chain of 5-hydroxytryptamine receptor 1A (Homo sapiens) (P08908 whole entry): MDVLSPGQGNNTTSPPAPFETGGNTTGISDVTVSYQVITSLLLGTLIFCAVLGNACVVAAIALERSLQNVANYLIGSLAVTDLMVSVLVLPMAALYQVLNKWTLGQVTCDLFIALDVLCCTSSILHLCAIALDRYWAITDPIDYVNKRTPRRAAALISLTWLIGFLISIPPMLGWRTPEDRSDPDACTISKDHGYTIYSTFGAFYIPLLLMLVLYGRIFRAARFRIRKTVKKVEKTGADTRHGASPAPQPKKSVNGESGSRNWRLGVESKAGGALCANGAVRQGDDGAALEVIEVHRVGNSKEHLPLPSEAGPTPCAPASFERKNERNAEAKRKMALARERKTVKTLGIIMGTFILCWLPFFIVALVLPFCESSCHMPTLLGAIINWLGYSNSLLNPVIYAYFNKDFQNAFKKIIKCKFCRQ

Chain of Sodium-dependent noradrenaline transporter (Homo sapiens) (P23975 whole entry): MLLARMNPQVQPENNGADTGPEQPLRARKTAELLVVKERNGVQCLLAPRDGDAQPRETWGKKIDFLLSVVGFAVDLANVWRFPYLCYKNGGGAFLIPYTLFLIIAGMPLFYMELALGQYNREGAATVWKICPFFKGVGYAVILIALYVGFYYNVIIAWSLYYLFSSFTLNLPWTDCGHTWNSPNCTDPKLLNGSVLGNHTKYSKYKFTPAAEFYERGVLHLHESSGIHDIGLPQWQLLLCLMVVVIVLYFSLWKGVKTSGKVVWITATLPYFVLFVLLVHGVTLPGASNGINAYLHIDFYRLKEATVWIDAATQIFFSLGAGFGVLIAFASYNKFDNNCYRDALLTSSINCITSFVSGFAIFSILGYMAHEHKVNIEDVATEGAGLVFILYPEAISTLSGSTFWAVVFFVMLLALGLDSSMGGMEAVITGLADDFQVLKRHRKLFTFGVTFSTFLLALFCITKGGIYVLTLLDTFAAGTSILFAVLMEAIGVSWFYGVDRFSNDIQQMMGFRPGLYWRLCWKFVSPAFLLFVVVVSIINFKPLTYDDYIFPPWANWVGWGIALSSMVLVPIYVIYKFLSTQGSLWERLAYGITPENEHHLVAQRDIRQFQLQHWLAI
Chain of Mitogen-activated protein kinase kinase kinase 19 (Homo sapiens) (Q56UN5 whole entry): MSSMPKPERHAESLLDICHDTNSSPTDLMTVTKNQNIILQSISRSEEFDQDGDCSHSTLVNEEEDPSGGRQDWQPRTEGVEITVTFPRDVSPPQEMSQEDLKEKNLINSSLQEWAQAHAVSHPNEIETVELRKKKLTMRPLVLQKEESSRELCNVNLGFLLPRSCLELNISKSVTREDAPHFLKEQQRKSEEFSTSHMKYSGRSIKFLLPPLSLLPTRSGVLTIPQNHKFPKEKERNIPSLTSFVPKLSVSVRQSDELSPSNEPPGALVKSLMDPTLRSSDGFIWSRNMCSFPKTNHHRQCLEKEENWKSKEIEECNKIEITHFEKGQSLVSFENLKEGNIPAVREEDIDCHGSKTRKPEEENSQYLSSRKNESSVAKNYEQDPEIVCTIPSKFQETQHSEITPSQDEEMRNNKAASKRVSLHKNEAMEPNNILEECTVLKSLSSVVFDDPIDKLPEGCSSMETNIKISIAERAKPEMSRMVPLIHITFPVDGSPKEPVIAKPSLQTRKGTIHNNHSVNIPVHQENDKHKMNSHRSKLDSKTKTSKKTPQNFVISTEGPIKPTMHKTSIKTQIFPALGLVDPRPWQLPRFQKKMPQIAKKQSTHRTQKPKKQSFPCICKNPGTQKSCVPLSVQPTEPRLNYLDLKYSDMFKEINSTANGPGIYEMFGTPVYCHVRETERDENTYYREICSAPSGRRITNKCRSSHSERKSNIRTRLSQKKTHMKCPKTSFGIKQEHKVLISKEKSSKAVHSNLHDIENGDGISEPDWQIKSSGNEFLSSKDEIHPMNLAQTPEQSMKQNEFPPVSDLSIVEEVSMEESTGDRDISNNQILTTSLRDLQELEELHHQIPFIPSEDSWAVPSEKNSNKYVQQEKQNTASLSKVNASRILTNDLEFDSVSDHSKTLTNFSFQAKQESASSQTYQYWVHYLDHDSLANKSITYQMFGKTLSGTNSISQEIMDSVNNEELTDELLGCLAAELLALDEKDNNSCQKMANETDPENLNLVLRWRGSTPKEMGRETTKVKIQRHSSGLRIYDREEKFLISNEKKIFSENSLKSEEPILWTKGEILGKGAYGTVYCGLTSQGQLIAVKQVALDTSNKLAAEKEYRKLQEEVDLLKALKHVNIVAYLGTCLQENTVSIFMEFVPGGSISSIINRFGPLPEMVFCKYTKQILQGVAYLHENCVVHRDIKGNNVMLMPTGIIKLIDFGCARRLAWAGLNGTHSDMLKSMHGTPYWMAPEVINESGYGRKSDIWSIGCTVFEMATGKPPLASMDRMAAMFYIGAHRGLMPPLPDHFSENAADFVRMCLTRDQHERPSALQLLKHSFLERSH
Chain of Muscarinic acetylcholine receptor M5 (Homo sapiens) (P08912 whole entry): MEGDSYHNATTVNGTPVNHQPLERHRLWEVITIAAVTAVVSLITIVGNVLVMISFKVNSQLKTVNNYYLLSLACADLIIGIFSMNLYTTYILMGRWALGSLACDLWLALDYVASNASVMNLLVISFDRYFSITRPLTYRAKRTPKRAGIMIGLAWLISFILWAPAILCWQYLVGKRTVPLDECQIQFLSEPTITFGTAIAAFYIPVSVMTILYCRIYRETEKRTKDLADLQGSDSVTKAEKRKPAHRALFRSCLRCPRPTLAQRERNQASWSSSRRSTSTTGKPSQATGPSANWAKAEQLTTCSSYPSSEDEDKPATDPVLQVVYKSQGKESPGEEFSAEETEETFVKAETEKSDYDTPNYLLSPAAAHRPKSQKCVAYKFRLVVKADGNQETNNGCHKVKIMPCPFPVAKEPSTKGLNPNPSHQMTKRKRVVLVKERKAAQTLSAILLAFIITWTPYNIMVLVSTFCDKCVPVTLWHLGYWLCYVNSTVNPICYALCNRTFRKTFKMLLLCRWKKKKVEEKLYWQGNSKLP
Chain of Atypical kinase COQ8B, mitochondrial (Homo sapiens) (Q96D53 whole entry): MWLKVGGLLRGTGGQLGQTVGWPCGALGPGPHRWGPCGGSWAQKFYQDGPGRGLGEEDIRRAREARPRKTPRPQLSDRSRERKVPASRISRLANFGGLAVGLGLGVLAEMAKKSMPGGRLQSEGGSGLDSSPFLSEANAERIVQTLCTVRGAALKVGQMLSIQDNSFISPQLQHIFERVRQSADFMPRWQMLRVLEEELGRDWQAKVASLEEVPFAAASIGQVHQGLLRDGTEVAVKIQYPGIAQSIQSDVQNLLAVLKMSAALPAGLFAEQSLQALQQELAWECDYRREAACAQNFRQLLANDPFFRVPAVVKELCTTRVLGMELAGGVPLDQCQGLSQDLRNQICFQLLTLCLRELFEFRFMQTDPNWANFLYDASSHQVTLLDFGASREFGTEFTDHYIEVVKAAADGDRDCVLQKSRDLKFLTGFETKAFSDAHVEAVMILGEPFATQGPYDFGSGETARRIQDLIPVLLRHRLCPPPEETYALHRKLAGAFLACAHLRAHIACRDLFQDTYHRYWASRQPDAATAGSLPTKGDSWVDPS

CCc1ccccc1C(=O)Nc1n[nH]c2c(C)c(F)c(C3C(C#N)=C(C)N(C)C(C)=C3C#N)cc12 [BAY-3827]
inactive: residual activity [1] 100% | residual activity [2] 57% | residual activity [3] 100% | residual activity [4] 96% | residual activity [5] 74% | inhibition [6] 2.8% | residual activity [7] 100% | inhibition [8] 17.9% | inhibition [9] 5.2%

CC1=C(C#N)C(c2ccc3c(c2)c(NC(=O)c2ccccc2C)nn3C)C(C#N)=C(C)N1 [BAY-974]
inactive: residual activity [1] 97% | residual activity [2] 99% | residual activity [3] 100% | residual activity [4] 100% | residual activity [5] 82% | inhibition [6] 2.85% | residual activity [7] 91% | inhibition [8] 6.82% | inhibition [9] 8.55%
